Laboratory results: US20130072563A1, “PERACID AND 2-HYDROXY ORGANIC ACID COMPOSITIONS AND METHODS FOR SANITATION AND DISEASE PREVENTION” (Fresh Express Incorporated, priority 2009, published 2013)

Assays:
[1] = cited from earlier work
E. coli K12 [2] = assay: Attached cells challenge test, Romaine; type: cell-based
E. coli K12 [3] = assay: Attached cells challenge test, Spinach; type: cell-based; details: LA 0.0%
[4] = system: Lactobacillus plantarum 14917; assay: Suspended Cells Challenge Test at 20 s residence time with no surfactant; type: cell-based; details: Lactic Acid 0 ppm
Experimental: The experimental treatment groups were tap water, chlorinated water, a FE sanitizer wash water (FE, FE sanitizer, a solution of peroxyacetic acid and lactic acid, as further specified in a given experiment).
The experimental protocol was as follows: • 1. Transfer 1.00 mL of a ˜10^8cfu/g Lactobacillus plantarum (ATCC 14917) stock culture into a test tube containing 9.00 mL of treatment test solution • 2. Vortex the mixture for 15 s • 3. Stop the reaction by transferring 1 mL of the treated samples to 9 mL of Butterfield Phosphate Buffer • 4. Enumerate viable residual cells through serial dilutions and spread plating with 1-mL transfers • 5. […] Repeat Steps 1 to 5 two more times • 7. Repeat Steps 1 to 6 with flume water • 8. Repeat Steps 1 to 6 with chlorinated water • 9. Repeat Steps 1 to 8 with various levels of FE • 10. Repeat Steps 1 to 8 with various levels of lactic acid • 11. Repeat Steps 1 to 8 with various levels of peroxyacetic acid • 12. Repeat Steps 1 to 11 with Listeria innocua (ATCC33090)
Estimation of Log Reductions • 1. Log […] is a measure of the percent of microorganisms that are inactivated during the disinfection process and is defined as Log Inactivation=Log10 (No/NT) where No is the initial influent concentration of viable microorganisms; NT is the concentration of surviving microorganisms. As M cfu/g=microbial population of stock culture; W cfu/g=microbial population in solution of “Water Treatment” and X cfu/g=microbial population in solution of “X Treatment,” the Log reduction caused by “Treatment X”=Log (w/x)

[5] = Depletion of sanitizer wash water by diced Romaine Lettuce, commercial scale test; type: physicochemical; details: 38 to 40 F.
Experimental: (§1) These experiments evaluated the consumption or depletion of peroxyacetic acid when used to wash produce.
(§2) Treatments: chlorinated water, peroxyacetic acid wash water, and FE sanitizer wash water
(§3) Temperature: 38 to 40° F.
(§4) Produce: 1.5″×2″ diced Romaine lettuce
(§5) A. Determination of the amount of Romaine Lettuce that could deplete 600 gallons of peroxyacetic acid wash water. • 1. Perform full sanitization on the Pilot Line System. • 2. Fill the 2nd flume tank, 2″ reservoir, and 2″ filtering tank with tap water. • 3. Recycle the water through the system until the water in the system is being cooled down to 40° F. • 4. Calibrate the Prominent System and use the Prominent System to monitor the concentration of PAA in the wash water. • 5. Add the PAA to the 2nd filtering tank until the target processing limit is reached. • 6. Dice the Romaine Lettuce via the translicer. • 7. Collect the 2″33 2″ diced Romaine in totes. • 8. Record the weight of each tote prior to transferring it to the 2nd flume. • 9. Collect three untreated bags of Romaine Lettuce from each bin (1 top, 1 middle, and 1 bottom). • 10. Collect three treated bags of Romaine Lettuce at the end of F2 (1 beginning, 1 middle, and 1 end of the bin). • 11. Place white totes at the bottom of the locations with water spill. Return the spilt water back into the flume tank as needed. • 12. Place white totes at the bottom outlets of the centrifuge to collect liquid that would be spin off from the leaves. Return the collected water back into the flume tank as needed. • 13. Repeat Steps ‘e’ to ‘k’ for the rest of the bins till the FE concentrations fall below the lowest processing limits. • 14. Enumerate the microbial population (APC and Yeast and mold) on the collected samples.
B. Determination of the Amount of Romaine Lettuce that Could Deplete 600 gallons of FE Wash Water • 1. Perform full sanitization on the Pilot Line System. • 2. Fill the flume tank, 2″ flume tank, 1st reservoir, 2nd reservoir, 1st filtering tank, and 2nd filtering tank with tap water. • 3. Recycle the water through the system until the water in the system is being cooled down to 40° F. • 4. Switch on the by-passes for the 1st and 2″ flume tank systems so that water would not be going through the filtering systems but only recycling from the flume tank to its associate reservoir continuously. • 5. Add the chemical ingredients to both tank until the target processing limit is reached. • 6. Verify the concentration of FE by the probe of the Prominent Monitoring System at the 1st flume tank (F1), 1^St Reservoir (R1), 2nd Flume tank (F2), and the 2nd Reservoir (R2). • 7. Collect water samples from F1 and F2. • 8. Assemble the Romaine Lettuce Bins next to the dumpster. • 9. Transfer whole Romaine Lettuce leaves from the bin to the conveyor. • 10. Ensure that the lid above the F1 is closed. Turn the “ON/OFF” switch of the translicer to “ON”. • 11. Turn the conveyor for transferring leaves into the translicer to “ON”. • 12. Ensure that the chopped Romaine are delivered evenly into the flume tank without aggregation and clumping. • 13. Collect three untreated bags of Romaine Lettuce from each bin (1 top, 1 middle, and 1 bottom). • 14. Collect three treated bags of Romaine Lettuce at the end of F2 (1 beginning, 1 middle, and 1 end of the bin). • 15. Verify the pH, temperature, and the concentration of FE at the 1st flume tank (F1), 1st Reservoir (R1), 2nd Flume tank (F2), and the 2nd Reservoir (R2) before and after processing a bin. • 16. Place white totes at the bottom of the locations with water spill. Return the spilt water back into the flume tank as needed. • 17. Place white totes at the bottom outlets of the centrifuge to collect liquid that would be spin off from the leaves. Return the collected water back into the flume tank as needed. • 18. Repeat Steps ‘e’ to ‘o’ for the rest of the bins till the FE concentrations fall below the lowest processing limits. • 19. […]

[6] = system: indigenous microorganisms (Aerobic Plate Counts); assay: Reduction of indigenous microorganisms on Romaine, commercial scale test; type: cell-based; details: 73-84 ppm peroxyacetic acid, no lactic acid
Experimental: as §1, §2, §3, §4
as §5, with “Place white totes at the bottom outlets of the centrifuge to collect liquid that would be spin off from the leaves. Return the collected water back into the flume tank as needed. • 13. Repeat Steps ‘e’ to ‘k’ for the rest of the bins till the FE concentrations fall below the lowest processing limits. • 14. Enumerate the microbial population (APC and Yeast and mold) on the collected samples.” left out

[7] = 40° C.; cited from earlier work
[8] = 600 gallons, Diced Romaine Lettuce
[9] = Cumulative Wt. of Diced Romaine added 0.0 lb, 600 gallons
[10] = Cumulative Wt. of Diced Romaine added 55.2 lb, 600 gallons
[11] = Cumulative Wt. of Diced Romaine added 114.9 lb, 600 gallons
[12] = Cumulative Wt. of Diced Romaine added 157.2 lb, 600 gallons
[13] = Cumulative Wt. of Diced Romaine added 207.7 lb, 600 gallons
[14] = Cumulative Wt. of Diced Romaine added 272.9 lb, 600 gallons
[15] = Cumulative Wt. of Diced Romaine added 325.8 lb, 600 gallons
[16] = Cumulative Wt. of Diced Romaine added 371.3 lb, 600 gallons
[17] = Cumulative Wt. of Diced Romaine added 424.7 lb, 600 gallons
[18] = Cumulative Wt. of Diced Romaine added 502.6 lb, 600 gallons
[19] = Cumulative Wt. of Diced Romaine added 565.0 lb, 600 gallons
[20] = Cumulative Wt. of Diced Romaine added 629.0 lb, 600 gallons
[21] = Cumulative Wt. of Diced Romaine added 697.1 lb, 600 gallons
[22] = Cumulative Wt. of Diced Romaine added 762.7 lb, 600 gallons
[23] = Cumulative Wt. of Diced Romaine added 826.6 lb, 600 gallons
[24] = Cumulative Wt. of Diced Romaine added 896.2 lb, 600 gallons
[25] = Cumulative Wt. of Diced Romaine added 949.9 lb, 600 gallons

[O][Cl+][O-] [Chlorine Dioxide]
Oxidation Capacity [1]: 1.57 eV

CC(O)C(=O)O (stereo not shown) [Lactic acid, lactic acid]
Log reduction, attached cells (E. coli K12 [2]; PAA 0 ppm, LA 1.2%): 1.28

O=[O+][O-] [Ozone]
Oxidation Capacity [1]: 2.07 eV

CC(=O)OO [Peroxyacetic acid, peroxyacetic acid]
Log reduction, attached cells (E. coli K12 [3]; PAA 70 ppm): 1.33
Log reduction, attached cells (E. coli K12 [3]; PAA 80 ppm): 2.46
Log reduction, attached cells (E. coli K12 [2]; PAA 80 ppm, LA 0.0%): 1.18
log reduction of suspended cells ([4]; Peroxyacetic acid 70 ppm): 4.52 log10
log reduction of suspended cells ([4]; Peroxyacetic acid 75 ppm): 5.59 log10
log reduction of suspended cells ([4]; Peroxyacetic acid 80 ppm): 5.59 log10
Pounds of Romaine treated ([5]; 600 gallons of sanitizer): 949.90 lb
Depletion of PA ([5]; 600 gallons): 0.000013 lb of PA per lb of Romaine
Amount of PA (PAA) consumed [5, 8]: 11.7 ppm
Pounds of PA (PAA) consumed [5, 8]: 0.01208 lb
PA (ppm) in wash water [5, 9]: 84.8 ppm
Peroxide (ppm) in wash water [5, 9]: 7.5 ppm
PA (ppm) in wash water [5, 10]: 83.3 ppm
Peroxide (ppm) in wash water [5, 10]: 7.4 ppm
PA (ppm) in wash water [5, 11]: 82.7 ppm
Peroxide (ppm) in wash water [5, 11]: 7.4 ppm
PA (ppm) in wash water [5, 12]: 82.4 ppm
Peroxide (ppm) in wash water [5, 12]: 7.4 ppm
PA (ppm) in wash water [5, 13]: 82.0 ppm
Peroxide (ppm) in wash water [5, 13]: 7.4 ppm
PA (ppm) in wash water [5, 14]: 81.4 ppm
Peroxide (ppm) in wash water [5, 14]: 7.3 ppm
PA (ppm) in wash water [5, 15]: 81.0 ppm
Peroxide (ppm) in wash water [5, 15]: 7.3 ppm
PA (ppm) in wash water [5, 16]: 80.5 ppm
Peroxide (ppm) in wash water [5, 16]: 7.1 ppm
PA (ppm) in wash water [5, 17]: 79.6 ppm
Peroxide (ppm) in wash water [5, 17]: 6.9 ppm
PA (ppm) in wash water [5, 18]: 78.7 ppm
Peroxide (ppm) in wash water [5, 18]: 6.9 ppm
PA (ppm) in wash water [5, 19]: 78.4 ppm
Peroxide (ppm) in wash water [5, 19]: 6.9 ppm
PA (ppm) in wash water [5, 20]: 77.7 ppm
Peroxide (ppm) in wash water [5, 20]: 6.4 ppm
PA (ppm) in wash water [5, 21]: 76.1 ppm
Peroxide (ppm) in wash water [5, 21]: 6.4 ppm
PA (ppm) in wash water [5, 22]: 75.4 ppm
Peroxide (ppm) in wash water [5, 22]: 6.1 ppm
PA (ppm) in wash water [5, 23]: 74.7 ppm
Peroxide (ppm) in wash water [5, 23]: 6.0 ppm
PA (ppm) in wash water [5, 24]: 73.7 ppm
Peroxide (ppm) in wash water [5, 24]: 6.0 ppm
PA (ppm) in wash water [5, 25]: 73.1 ppm
Peroxide (ppm) in wash water [5, 25]: 6.0 ppm
Aerobic Plate Counts after wash [6]: 2.7 Log cfu/g
Log Reduction of indigenous microorganisms [6]: 0.7 log10
Oxidation Capacity [1]: 1.81 eV
apparent equilibrium constant Kap [7]: about 2.21

OCl [Sodium hypochlorite (Chlorine bleach), Sodium hypochlorite]
Oxidation Capacity [1]: 1.36 eV
